In the experiment the target is T1, Recombinant human N-His6-IDE42-1019 (Homo sapiens, UniProt P14735).
T1 construct: Recombinant human N-His6-IDE42-1019(R&D Systems); His6 (N); purchased R&D Systems
T1 sequence (P14735 42-1019): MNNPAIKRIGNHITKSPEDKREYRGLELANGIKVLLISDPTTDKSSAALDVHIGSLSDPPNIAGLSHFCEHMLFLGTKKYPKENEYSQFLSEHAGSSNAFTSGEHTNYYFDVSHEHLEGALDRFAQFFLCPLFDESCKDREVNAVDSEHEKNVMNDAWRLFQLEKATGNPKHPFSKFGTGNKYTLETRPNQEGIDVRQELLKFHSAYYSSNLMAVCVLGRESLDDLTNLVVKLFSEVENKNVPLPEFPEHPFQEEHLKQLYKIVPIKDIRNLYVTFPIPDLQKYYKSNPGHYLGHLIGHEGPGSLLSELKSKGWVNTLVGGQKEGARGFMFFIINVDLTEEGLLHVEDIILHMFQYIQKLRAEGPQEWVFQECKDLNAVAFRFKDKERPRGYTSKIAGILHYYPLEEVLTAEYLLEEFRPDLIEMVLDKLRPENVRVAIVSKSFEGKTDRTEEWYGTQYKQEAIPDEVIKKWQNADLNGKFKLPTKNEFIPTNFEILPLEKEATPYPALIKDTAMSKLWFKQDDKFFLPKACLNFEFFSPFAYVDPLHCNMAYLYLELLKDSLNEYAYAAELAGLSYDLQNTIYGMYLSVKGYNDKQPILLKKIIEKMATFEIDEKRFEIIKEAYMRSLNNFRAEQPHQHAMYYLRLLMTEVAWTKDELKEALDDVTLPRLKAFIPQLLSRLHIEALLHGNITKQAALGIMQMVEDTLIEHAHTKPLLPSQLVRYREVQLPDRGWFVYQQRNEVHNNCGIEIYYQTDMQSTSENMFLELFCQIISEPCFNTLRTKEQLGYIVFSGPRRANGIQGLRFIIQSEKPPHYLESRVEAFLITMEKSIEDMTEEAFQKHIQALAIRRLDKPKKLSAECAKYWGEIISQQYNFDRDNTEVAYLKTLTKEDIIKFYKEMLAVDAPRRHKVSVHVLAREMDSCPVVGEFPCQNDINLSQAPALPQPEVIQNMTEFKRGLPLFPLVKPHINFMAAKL
Kind of experiment: IDE inhibition assay with fluorogenic decapeptide substrate Mca-RPPGFSAFK(Dnp)-OH. The format is biochemical. The settings on record: fluorogenic decapeptide cleavage assay; for IC50: DNA-free macrocycle; for IDE inhibition, potency in words: comparison with reference inhibitors. How it is done: Recombinant human N-His6-IDE42-1019(R&D Systems) was assayed using the fluorophore/quencher-tagged peptide substrate Mca-RPPGFSAFK(Dnp)-OH (R&D) according to the manufacturer's instructions and using the recommended buffer 50 mM Tris, pH 7.5, 1 M NaCl (fluorophore Mca=(7-methoxycourmarin-4-yl)acetyl and quencher Dnp=2,4-dinitrophenyl). The enzyme mixture (48 μL) was transferred to a 96-well plate and combined with 2 μL of inhibitor in DMSO solutions, as 3-fold dilution series. The mixtures were allowed to equilibrate for 5 minutes and the enzymatic reaction was started by addition of substrate peptide in assay buffer (50 μL), immediately mixed by orbital shaking, and monitored on a fluorescence plate reader (excitation at 320 nm, emission at 405 nm). […] Inhibitor 6bK was used as a positive control in each assay, and error bars correspond to the standard error.

SMILES strings stand for the structures. Entries after “also recorded” stand apart in the source; their conditions may differ.

The values below come from patent publication US11674136B2, “DNA-templated macrocycle library” (President and Fellows of Harvard College, priority 2018, dated 2023).

A word on the IC50: it is the concentration needed to halve the response being measured.

For the compound `NCCOCCNC(=O)C1Cc2ccccc2CNC(=O)CC(Cc2ccccc2)NC(=O)C(Cc2ccco2)NC(=O)CN2CCN(CC2)C(=O)C=CC(=O)N1` (stereo not drawn) [cis-CODVV], the IC50 is 30000 nM.

Take `NCCOCCNC(=O)C1CCNC(=O)C=CC(=O)NC(Cc2ccccc2C(F)(F)F)C(=O)NC(CC2CCCCC2)C(=O)NC(Cc2ccc(C(=O)c3ccccc3)cc2)C(=O)N1` (stereo not drawn) [cis-DJIR]: the IC50 came to 40 nM; the “IDE inhibition, potency in words” value was “equipotent to the structurally similar trans-6bK and trans-6bA macrocycles; also recorded: at least as potent that 6bK”.

For the compound `CC1NC(=O)C=CC(=O)NC(C(=O)NCCOCCN)Cc2cccc(c2)CNC(=O)C(Cc2ccc(C(=O)c3ccccc3)cc2)NC(=O)C(CC2CCCCC2)NC1=O` (stereo not drawn) [trans-DJPM], the IC50 is 50 nM; the “IDE inhibition, potency in words” value is “equipotent to the structurally similar trans-6bK and trans-6bA macrocycles; also recorded: comparable in potency to our previously optimized 20-membered inhibitor 6bK; also recorded: equipotent to the previously optimized IDE inhibitor 6bK”.
